Here are results for 19 compounds from publication PMC6010143, “Synthesis of new pyridothienopyrimidinone derivatives as Pim-1 inhibitors” (Journal of Enzyme Inhibition and Medicinal Chemistry, 2017).

The structures appear in SMILES notation. Like-named read-outs stand apart in the source and are kept apart here. Some results are limits rather than exact numbers.

One series deals with pim-1. To be noted: cited from earlier work.
The subject of the next series is pim-2. To be noted: Figure 1; cited from earlier work.
Another series deals with T1, pim-1 kinase (Homo sapiens, UniProt P11309).
T1 construct: The kinase used was cloned, expressed and purified using proprietary methods
T1 sequence (P11309 whole entry): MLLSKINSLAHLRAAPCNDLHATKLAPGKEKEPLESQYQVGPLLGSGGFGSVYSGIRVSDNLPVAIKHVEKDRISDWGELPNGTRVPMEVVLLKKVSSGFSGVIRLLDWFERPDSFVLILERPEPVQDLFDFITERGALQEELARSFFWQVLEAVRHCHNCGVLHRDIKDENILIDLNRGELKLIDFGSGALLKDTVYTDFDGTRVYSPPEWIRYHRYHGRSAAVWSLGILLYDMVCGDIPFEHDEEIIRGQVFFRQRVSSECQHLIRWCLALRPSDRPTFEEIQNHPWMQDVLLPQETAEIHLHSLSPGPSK
In words: Pim-1 kinase radioisotope (33P-ATP) assay, Kinexus compound profiling service. The format is biochemical. The conditions noted are these: for pim-1 inhibition, in words: at 50 μM. How it is done: The kinase inhibitory activity of the synthesized compounds was determined using the Kinexus compound profiling service, Canada. All the compounds were tested for their inhibitory activity against pim-1 kinase at 50 μM. The kinase used was cloned, expressed and purified using proprietary methods. Quality control testing is routinely performed to ensure compliance to acceptable standards. ^33P-ATP was purchased from PerkinElmer. All other materials were of standard laboratory grade.
The protein kinase target profiling was executed via employing a radioisotope assay format. All the assays were performed in a prepared radioactive working area. The protein kinase profiling assays were performed at room temperature for 20–30 min in a final volume of 25 μL according to the following assay reaction components: Component 1; 5 μl of diluted active protein kinase (∼10–50 nM final concentration in the assay). Component 2; 5 μl of stock solution of substrate. Component 3; 5 μl of kinase assay buffer. Component 4; 5 μl of the test compound, Staurosporine at 1 μM or 10% DMSO.
The assay was initiated by the addition of ^33P-ATP, followed by incubation at ambient temperature for 30 min. The assay was then terminated by spotting 10 μL of the reaction mixture onto a Multiscreen phosphocellulose P81 plate. The Multiscreen phosphocellulose P81 plate was washed three times for approximately 15 min each in a 1% phosphoric acid solution. The radioactivity on the P81 plate was counted in the presence of scintillation fluid in a Trilux scintillation counter. Blank control was set up that included all the assay components except the addition of the appropriate substrate (replaced with equal volume of assay dilution buffer). The corrected activity for protein kinase target was determined by removing the blank control value.

In series [1] the test system is human colon adenocarcinoma (HCT116). In words: MTT cytotoxicity assay, HCT116. The conditions noted are these: for IC50: 72 h exposure, means of three experiments. Type of series: cell-based. How it is done: (§1) Cancer cells from different cancer cell lines were purchased from American type Cell Culture collection (ATCC, Manassas, VA). The cell lines used in this study were human breast adenocarcinoma (MCF7), human colon adenocarcinoma (HCT116) and human prostate cancer cells (PC3). The cell lines were grown on the appropriate growth medium Dulbecco's modified Eagle's medium (DMEM) or Roswell Park Memorial Institute medium (RPMI 1640) supplemented with […] of streptomycin, 100 units/mL of penicillin and 10% of heat-inactivated fetal bovine serum in a humidified, 5% (v/v) CO2 atmosphere at 37 °C.
(§2) Exponentially growing cells from different cancer cell lines were trypsinized, counted and seeded at the appropriate densities (2000–10 000 cells/0.33 cm^2 well) into 96-well microtiter plates. The cells were incubated in a humidified atmosphere at 37°C for 24 h. Then, the cells were exposed to different concentrations of compounds 6c, 7a, 7c, 7d, 8b and 9 (0.1, 10, 100 and 1000 μM) for 72 h. The viability of the treated cells was determined using MTT technique. The media were removed; cells were incubated with 200 μL of 5% MTT solution/well (Sigma Aldrich, St. Louis, MO) and were allowed to metabolize the dye into colored-insoluble formazan crystals for 2 h. The remaining MTT solution was discarded from the wells and the formazan crystals were dissolved in 200 μL/well-acidified isopropanol for 30 min, covered with aluminum foil and with continuous shaking using a MaxQ 2000 plate shaker (Thermo Fisher Scientific Inc, MI) at room temperature. The absorbance was measured at 570 nm using a Stat FaxR 4200 plate reader (Awareness Technology, Inc., Palm City, FL). […] The results are shown in Table 2 and represented graphically in Figure 5.
For orientation: Tetrazolium assays rely on reduction of a dye to a coloured formazan, in cell work by metabolically active cells.

The test system of series [2] is human prostate cancer cells (PC3). Kind of series: MTT cytotoxicity assay, PC3. Type of series: cell-based. To be noted: for IC50: 72 h exposure, means of three experiments. As to the method: as §1, §2
Series [3] deals with human breast adenocarcinoma (MCF7). In words: MTT cytotoxicity assay, MCF7. The format is cell-based. To be noted: for IC50: 72 h exposure, means of three experiments. As to the method: as §1, §2

Take `O=C(O)c1ccc2c(c1)nc(Nc1cccc(Cl)c1)c1ccncc12` [CX-4595]: the IC50 with pim-1 (Figure 1) was 0.048 µM; with pim-2 it was 186 nM.
With `Cc1nc2sc(C(N)=O)c(N)c2c(C)c1Br` [Compound 4, 3-Amino-5-bromo-4,6-dimethylthieno[2,3-b]pyridine-2-carboxamide], the melting point lay in the range of 260 to 261 °C. In addition, testing at 50 µM at pim-1 kinase (test compounds at 50 μM) gave an inhibition of 16%.
`Cc1nc2sc3c(=O)[nH]cnc3c2c(C)c1Br` [Compound 5, 8-bromo-7,9-dimethylpyrido[3′,2′:4,5]thieno[3,2-d]pyrimidin-4(3H)-one] showed an inhibition at 50 µM against pim-1 kinase (test compounds at 50 μM) of 37%.
As to `Cc1nc2sc3c(=O)[nH]c(-c4ccccc4Cl)nc3c2c(C)c1Br` [Compound 6a, 8-Bromo-2-(2-chlorophenyl)-7,9-dimethylpyrido[3',2':4,5]thieno[3,2-d]pyrimidin-4(3H)-one], the melting point was over 300 °C. For the same compound, at pim-1 kinase, the IC50 is over 100 µM. At 50 µM the inhibition on pim-1 kinase (test compounds at 50 μM) was 36%.
Take `Cc1nc2sc3c(=O)[nH]c(-c4ccccc4F)nc3c2c(C)c1Br` [Compound 6b, 8-Bromo-2-(2-fluorophenyl)-7,9-dimethylpyrido[3',2':4,5]thieno[3,2-d]pyrimidin-4(3H)-one]: the melting point lay within 295 to 296 °C. The “pim-1 inhibition, in words” value on pim-1 kinase is recorded as “moderate”. Besides, at pim-1 kinase (test compounds at 50 μM), the inhibition at 50 µM was 61%.
Take `Cc1nc2sc3c(=O)[nH]c(-c4ccccc4O)nc3c2c(C)c1Br` [Compound 6c, 8-Bromo-2-(2-hydroxyphenyl)-7,9-dimethylpyrido[3',2':4,5]thieno[3,2-d]pyrimidin-4(3H)-one]: the IC50 is 4.62 ± 0.039 µM on pim-1 kinase; 63.3 ± 4.5 µM in series [1] (Homo sapiens, HCT-116, 72 h); 60.1 ± 4.65 µM in series [2] (Homo sapiens, 72 h); 35.5 ± 1.3 µM in series [3] (Homo sapiens, MCF7, 72 h). The inhibition at 50 µM against pim-1 kinase (test compounds at 50 μM) was determined as 85%. The “cytotoxic activity on HCT116, in words” value in series [1] is on record as “moderate”. Further, in series [2], the “cytotoxic activity on PC3, in words” value was “moderate”. In addition, the “cytotoxic activity on MCF7, in words” value in series [3] is “moderate”.
`Cc1nc2sc3c(=O)[nH]c(-c4ccccc4C(F)(F)F)nc3c2c(C)c1Br` [Compound 6d, 8-Bromo-7,9-dimethyl-2-[2-(trifluoromethyl)phenyl]pyrido[3',2':4,5]thieno[3,2-d]pyrimidin-4(3H)-one] came in with a melting point of 255 to 256 °C. Further, the “pim-1 inhibition, in words” value at pim-1 kinase was “moderate”. The same compound gave an inhibition at 50 µM at pim-1 kinase (test compounds at 50 μM) of 54%.
With `Cc1nc2sc3c(c2c(C)c1Br)NC(c1ccccc1Cl)NC3=O` (centres unmarked) [Compound 7a, 8-Bromo-2-(2-chlorophenyl)-7,9-dimethyl-2,3-dihydropyrido[3',2':4,5]thieno[3,2-d]pyrimidin-4(1H)-one], the IC50 against pim-1 kinase is 1.18 ± 0.14 µM; in series [1], 18.3 ± 0.68 µM; in series [1] (Homo sapiens, HCT-116, 72 h), 18 to 38 µM; in series [2] it was 24.2 ± 0.91 µM; in series [2] (Homo sapiens, 72 h), 18 to 38 µM; in series [3], 23.8 ± 0.4 µM. This compound also returned an IC50 in series [3] (Homo sapiens, MCF7, 72 h) of 18 to 38 µM. At 50 µM the inhibition at pim-1 kinase (test compounds at 50 μM) was 81%.
The compound `Cc1nc2sc3c(c2c(C)c1Br)NC(c1ccccc1F)NC3=O` (centres unmarked) [Compound 7b, 8-Bromo-2-(2-fluorophenyl)-7,9-dimethyl-2,3-dihydropyrido[3',2':4,5]thieno[3,2-d]pyrimidin-4(1H)-one] gave a melting point of 292 to 293 °C. Also, the “pim-1 inhibition, in words” value at pim-1 kinase was “moderate”. The inhibition at 50 µM against pim-1 kinase (test compounds at 50 μM) is 66%.
Consider `Cc1nc2sc3c(c2c(C)c1Br)NC(c1ccccc1O)NC3=O` (centres unmarked) [Compound 7c, 8-Bromo-2-(2-hydroxyphenyl)-7,9-dimethyl-2,3-dihydropyrido[3',2':4,5]thieno[3,2-d]pyrimidin-4(1H)-one], for which the IC50 on pim-1 kinase came out at 1.38 ± 0.025 µM; in series [1] (Homo sapiens, HCT-116, 72 h), 181 ± 5.03 µM; in series [2] (Homo sapiens, 72 h), 58.2 ± 3.48 µM; in series [3] (Homo sapiens, MCF7, 72 h), 59.6 ± 1.2 µM. The compound further had an inhibition at 50 µM against pim-1 kinase (test compounds at 50 μM) of 93%. Moreover, the “cytotoxic activity on HCT116, in words” value in series [1] is “moderate”. Further, the “cytotoxic activity on PC3, in words” value in series [2] is listed as “moderate”. The “cytotoxic activity on MCF7, in words” value in series [3] is recorded as “moderate”.
On to `Cc1nc2sc3c(c2c(C)c1Br)NC(c1ccccc1C(F)(F)F)NC3=O` (centres unmarked) [Compound 7d, 8-Bromo-7,9-dimethyl-2-[2-(trifluoromethyl)phenyl]-2,3-dihydropyrido[3',2':4,5]thieno[3,2-d]pyrimidin-4(1H)-one], for which the IC50 was 1.97 ± 0.022 µM against pim-1 kinase; 30 ± 0.55 µM in series [1]; 18 to 38 µM in series [1] (Homo sapiens, HCT-116, 72 h); 30.2 ± 0.8 µM in series [3]; 18 to 38 µM in series [3] (Homo sapiens, MCF7, 72 h). This compound yielded an inhibition at 50 µM on pim-1 kinase (test compounds at 50 μM) of 98%.
Compound `Cc1nc2c(sc3nc(C)c(Br)c(C)c32)c(=O)[nH]1` [Compound 8a, 8-Bromo-2,7,9-trimethylpyrido[3',2':4,5]thieno[3,2–d]pyrimidin-4(3H)-one] had a melting point of over 300 °C. Also, the “pim-1 inhibition, in words” value at pim-1 kinase was “moderate”. The compound further came in with an inhibition at 50 µM on pim-1 kinase (test compounds at 50 μM) of 51%.
Turning to `Cc1nc2sc3c(=O)[nH]c(C(F)(F)F)nc3c2c(C)c1Br` [Compound 8b, 8-Bromo-7,9-dimethyl-2-(trifluoromethyl)pyrido[3',2':4,5]thieno[3,2-d]pyrimidin-4(3H)-one], the IC50 at pim-1 kinase came out at 8.83 ± 0.028 µM; in series [1] (Homo sapiens, HCT-116, 72 h) it was 23.5 ± 0.53 µM; in series [2] (Homo sapiens, 72 h), 59.9 ± 2.48 µM; in series [3] (Homo sapiens, MCF7, 72 h) it was 28.6 ± 1 µM. Moreover, the inhibition at 50 µM at pim-1 kinase (test compounds at 50 μM) was found to be 96%. Moreover, in series [1], the “cytotoxic activity on HCT116, in words” value is “potent”. For the same compound, the “cytotoxic activity on PC3, in words” value in series [2] is listed as “moderate”. For the same compound, the “cytotoxic activity on MCF7, in words” value in series [3] is listed as “potent”.
The compound `CCc1nc2c(sc3nc(C)c(Br)c(C)c32)c(=O)[nH]1` [Compound 8c, 8-Bromo-2-ethyl-7,9-dimethylpyrido[3',2':4,5]thieno[3,2-d]pyrimidin-4(3H)-one] displayed a melting point of over 300 °C. This compound came in with an inhibition at 50 µM at pim-1 kinase (test compounds at 50 μM) of 23%. In addition, the “% Inhibition of pim-1 kinase” value at pim-1 kinase (test compounds at 50 μM, 50 µM) was determined as 17%.
For `CC(=O)Cc1nc2c(sc3nc(C)c(Br)c(C)c32)c(=O)[nH]1` [Compound 9, 8-Bromo-7,9-dimethyl-2-(2-oxopropyl)pyrido[3',2':4,5]thieno[3,2-d]pyrimidin-4(3H)-one], the IC50 turned out to be 4.18 ± 0.076 µM on pim-1 kinase; 151 ± 4.04 µM in series [1] (Homo sapiens, HCT-116, 72 h); 183 ± 12.1 µM in series [2] (Homo sapiens, 72 h); 123 ± 12 µM in series [3] (Homo sapiens, MCF7, 72 h). The compound also registered an inhibition at 50 µM at pim-1 kinase (test compounds at 50 μM) of 89%. In addition, in series [1], the “cytotoxic activity on HCT116, in words” value is on record as “weak”. The “cytotoxic activity on PC3, in words” value in series [2] was “weak”. For the same compound, the “cytotoxic activity on MCF7, in words” value in series [3] was “weak”.
In turn, `CCOC(=O)Cc1nc2c(sc3nc(C)c(Br)c(C)c32)c(=O)[nH]1` [Compound 10, Ethyl (8-bromo-7,9-dimethyl-4-oxo-3,4-dihydropyrido[3',2':4,5]thieno[3,2-d]pyrimidin-2-yl)acetate] registered a melting point of 277 to 278 °C. Further, at pim-1 kinase, the “pim-1 inhibition, in words” value was “poor”. For the same compound, at pim-1 kinase (test compounds at 50 μM), the inhibition at 50 µM was 31%.
The corresponding values for `Cc1nc2sc3c(=O)[nH]c(CC(=O)O)nc3c2c(C)c1Br` [Compound 11, (8-Bromo-7,9-dimethyl-4-oxo-3,4-dihydropyrido[3',2':4,5]thieno[3,2-d]pyrimidin-2-yl)acetic acid] are over 300 °C, “poor” and 19%.
On to `CN[C@@H]1C[C@H]2O[C@@](C)([C@@H]1OC)n1c3ccccc3c3c4c(c5c6ccccc6n2c5c31)C(=O)NC4` [Staurosporine, reference compound], for which the inhibition at 1 µM at pim-1 kinase (read-out: % Inhibition of pim-1 kinase) was determined as 93%.
On to `COc1ccc(N2CCN(C(=O)c3sc4nc(C)c(Br)c(C)c4c3N)CC2)cc1` [V], for which the IC50 in the series on pim-1 (Figure 2, earlier thieno[2,3-b]pyridine) was 12.7 µM.

The term IC50 denotes the point on the concentration scale where inhibition reaches its midpoint. The inhibition is the change of the read-out against control, counted positive when it falls. Broadly, the melting point is the temperature, or range, at which the solid turns liquid.
